Test systems include A549 NSCLC; ACHN renal; BT-549 breast; HCT-15 colon; KM12 colon; LOX IMVI melanoma; NCI-H522 lung; OVCAR-5 ovarian; SF-268 CNS; SF-539 CNS.
Common to all, as to experiment: NCI-60 cell line screen, 48 h

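48-hour exposure; five concentrations; linearly interpolated endpoints. At the GI50, growth is halved. TGI marks complete inhibition of growth.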

Take `COc1cc(C[C@@]2(C)[C@@H]3CCC[C@H](CO)[C@@]3(C)CC[C@@H]2C)c(Cl)c(OC)c1`: the TGI in the test with A549 NSCLC was determined as 29.6 µM; in the test on ACHN renal, 29.4 µM; with BT-549 breast, 33.8 µM; in the test on HCT-15 colon it was 34.1 µM; in the test with KM12 colon, 37.8 µM; in the test with LOX IMVI melanoma, 32.9 µM. Besides, the TGI in the test on NCI-H522 lung was 28.9 µM; in the test on OVCAR-5 ovarian, 32.9 µM; in the test on SF-268 CNS, 30.8 µM; in the test with SF-539 CNS, 29.4 µM.

As for `CCCC(=O)OCC1OC(n2cc(F)c(=O)[nH]c2=O)CC1OC(=O)CCC` (stereo unspecified), the TGI in the test with A549 NSCLC, in the test with ACHN renal, in the test on BT-549 breast, in the test on HCT-15 colon, with KM12 colon and in the test on LOX IMVI melanoma was more than 10 µM each time. Also, the TGI in the test on NCI-H522 lung was more than 10 µM; in the test on OVCAR-5 ovarian, more than 10 µM; with SF-268 CNS, more than 10 µM; in the test on SF-539 CNS, 0.281 µM.

Consider `O=c1c(NCc2ccccc2)c(C2(c3ccccc3F)SCCCS2)c1=O`, for which the TGI in the test on A549 NSCLC, in the test on ACHN renal, in the test on BT-549 breast, in the test on HCT-15 colon, in the test on KM12 colon and in the test on LOX IMVI melanoma was more than 100 µM each time. Further, the TGI in the test with NCI-H522 lung, with OVCAR-5 ovarian, in the test with SF-268 CNS and in the test on SF-539 CNS was more than 100 µM in each case.

Take `CC(=O)C1=C(C)N(c2ccccc2)C2(O)C3=C(C(=O)c4ccccc4C3=O)C(O)=CC12Cl` (stereo unspecified): the TGI was more than 100 µM in the test on A549 NSCLC; 33.2 µM in the test with ACHN renal; 30.3 µM in the test on BT-549 breast; more than 100 µM with HCT-15 colon; 24.6 µM in the test on KM12 colon; more than 100 µM in the test with LOX IMVI melanoma. The TGI is 5.81 µM in the test on NCI-H522 lung, more than 100 µM with OVCAR-5 ovarian, 60.6 µM in the test on SF-268 CNS and 15.6 µM in the test on SF-539 CNS.

Take `COC(=O)C1(Cc2ccc3c(c2)CCC3)Cc2ccc3c(c2C1=O)CCC3` (stereo unspecified): the TGI in the test with A549 NSCLC was more than 100 µM; with ACHN renal, more than 100 µM; with BT-549 breast, more than 46.1 µM; in the test on HCT-15 colon it was more than 40.5 µM; with KM12 colon, more than 100 µM; with LOX IMVI melanoma it was more than 65.3 µM. Besides, the TGI in the test on NCI-H522 lung was 18.8 µM; in the test with OVCAR-5 ovarian it was more than 100 µM; in the test on SF-268 CNS it was more than 100 µM; with SF-539 CNS it was 34.8 µM.

`COc1ccc2c(c1)/C(=C\c1c(Cl)nc3n1CCS3)C(=O)N2`: the TGI was more than 100 µM in the test with A549 NSCLC; more than 100 µM in the test with ACHN renal; 44 µM in the test on BT-549 breast; 62.1 µM in the test with HCT-15 colon; 23.2 µM with KM12 colon; more than 100 µM in the test with LOX IMVI melanoma. Besides, the TGI is 24.4 µM in the test with NCI-H522 lung, 74.1 µM with OVCAR-5 ovarian, more than 100 µM in the test with SF-268 CNS and 24.9 µM in the test with SF-539 CNS.

For `CCO/N=C\c1ccc2oc(-c3ccccc3)cc(=O)c2c1`, the TGI is 17 µM in the test on A549 NSCLC; 37.2 µM in the test with ACHN renal; 24.4 µM in the test with BT-549 breast; 12.4 µM in the test on HCT-15 colon; 11.1 µM in the test on KM12 colon; more than 48.7 µM in the test on LOX IMVI melanoma. The TGI in the test on NCI-H522 lung was found to be 0.265 µM; in the test on OVCAR-5 ovarian it was 40 µM; with SF-268 CNS, 24.2 µM; with SF-539 CNS, 2.86 µM.

Consider `C/C(Cc1ccc2c(c1)OCO2)=N\N=c1\sc2ccccc2n1C`, for which the TGI in the test with A549 NSCLC, in the test with ACHN renal, with BT-549 breast, in the test on HCT-15 colon, in the test with KM12 colon and with LOX IMVI melanoma was more than 100 µM in each case. Also, the TGI in the test on NCI-H522 lung, with OVCAR-5 ovarian, in the test on SF-268 CNS and in the test on SF-539 CNS was more than 100 µM in each case.

Consider `O=C(N/N=C\c1ccc(Cl)cc1)Nc1ccc2ccccc2c1`, for which the TGI in the test on A549 NSCLC, with ACHN renal, in the test on BT-549 breast, with HCT-15 colon, with KM12 colon and in the test with LOX IMVI melanoma was more than 100 µM throughout. In addition, the TGI in the test on NCI-H522 lung is more than 100 µM; with OVCAR-5 ovarian, more than 100 µM; in the test on SF-268 CNS it was 71.3 µM; with SF-539 CNS it was 75.7 µM.

In the case of `CC(C)(C)OC(=O)NC(CSCc1ccc(C(=O)c2ccccc2)cc1)C(=O)N1CCN(CCCCN2c3ccccc3Sc3cc(N=[N+]=[N-])ccc32)CC1` (stereo unspecified), the TGI in the test with A549 NSCLC, in the test with ACHN renal, in the test with BT-549 breast, in the test on HCT-15 colon, with KM12 colon and in the test with LOX IMVI melanoma was more than 100 µM throughout. The TGI with NCI-H522 lung, in the test with OVCAR-5 ovarian, with SF-268 CNS and in the test with SF-539 CNS was more than 100 µM throughout.

On to `ClCCCN1CCN(CCCl)CC1`, for which the GI50 in the test with A549 NSCLC was 96.2 µM; in the test on ACHN renal it was 7.09 µM; in the test on LOX IMVI melanoma, 23.9 µM; in the test on NCI-H522 lung, 54.9 µM; in the test with SF-268 CNS, 38.6 µM; with SF-539 CNS, 27.9 µM. The TGI in the test on A549 NSCLC is more than 851 µM; in the test on ACHN renal, 265 µM; in the test with BT-549 breast, 423 µM; with HCT-15 colon, 790 µM; with KM12 colon, more than 1000 µM; in the test on LOX IMVI melanoma it was 608 µM. Also, the TGI in the test on NCI-H522 lung is 356 µM; in the test with OVCAR-5 ovarian, 737 µM; in the test with SF-268 CNS, more than 892 µM; in the test on SF-539 CNS it was 233 µM.

Consider `O=C1/C(=C/c2cccc([N+](=O)[O-])c2)N=C(c2ccccc2)N1c1nc2ccc(Sc3ccccc3)cc2[nH]1`, for which the TGI in the test with A549 NSCLC, in the test on ACHN renal, in the test with BT-549 breast, in the test with HCT-15 colon, with KM12 colon and with LOX IMVI melanoma was more than 100 µM throughout. Further, the TGI with NCI-H522 lung, in the test with OVCAR-5 ovarian, in the test on SF-268 CNS and in the test on SF-539 CNS was more than 100 µM each time.

With `N=c1oc2cc(O)ccc2cc1C(=O)Nc1ccccn1`, the TGI in the test on A549 NSCLC, in the test with ACHN renal, with BT-549 breast, with HCT-15 colon, in the test with KM12 colon and in the test with LOX IMVI melanoma was more than 100 µM each time. In addition, the TGI with NCI-H522 lung is 13 µM; with OVCAR-5 ovarian, more than 100 µM; in the test with SF-268 CNS, more than 100 µM; in the test with SF-539 CNS, more than 100 µM.

(Values after PubChem BioAssay (NCI).)
